Source: patent publication US6020327A, “Control of hair growth” (The Central Sheffield University Hospitals NHS Trust, priority 1994, dated 2000)
Read-outs that look alike come from different tables or passages of the source.

What was measured:
aromatase [1] = biological target: T1, aromatase (Homo sapiens, UniProt P11511); assay: Aromatase activity by tritiated water release assay in cultured skin fibroblasts: substrate kinetics and inhibition
T1 sequence (P11511 1-503): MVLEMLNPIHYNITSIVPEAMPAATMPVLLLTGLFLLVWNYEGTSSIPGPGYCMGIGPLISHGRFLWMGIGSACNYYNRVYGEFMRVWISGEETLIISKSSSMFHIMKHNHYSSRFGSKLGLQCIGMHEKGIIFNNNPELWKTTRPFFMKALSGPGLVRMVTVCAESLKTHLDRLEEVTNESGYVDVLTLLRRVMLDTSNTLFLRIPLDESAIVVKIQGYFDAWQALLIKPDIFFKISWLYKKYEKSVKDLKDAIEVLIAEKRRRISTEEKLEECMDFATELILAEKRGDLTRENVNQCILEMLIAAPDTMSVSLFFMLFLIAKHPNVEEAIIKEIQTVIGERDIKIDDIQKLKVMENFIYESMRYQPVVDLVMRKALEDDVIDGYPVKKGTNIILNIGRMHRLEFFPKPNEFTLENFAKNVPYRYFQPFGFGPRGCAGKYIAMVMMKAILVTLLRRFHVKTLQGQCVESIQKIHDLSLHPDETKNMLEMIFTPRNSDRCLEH
Experimental: (§2) Enzymic kinetic values were established by incubating cells with the substrate (androstenedione) in a range of concentrations.
(§3) Enzyme kinetic values were established by incubating cells with the substrate (androstenedione) in a range of concentrations.

aromatase [2] = biological target: T1, aromatase; assay: Aromatase by tritiated water assay in minced scalp skin samples, with and without aromatase inhibitor; type: biochemical; design: endogenous in cells; host or cells: cultured human non-follicular skin fibroblast lines (beard, occipital scalp, frontal scalp); conditions: addition of 25 nmol to minced scalp skin samples
Experimental: To determine whether the results obtained using cell culture are representative of events occurring in vivo aromatase was measured by the tritiated water assay in skin samples from male and female scalp. Tissue was minced and then incubated with 1β^3 H-androstenedione together with a source of NADPH. Each assay was done in the presence and absence of an aromatase inhibitor (4OH-androstenedione). Placental tissue was used as a positive control.

[3] = test system: aromatase activity in skin fibroblasts; assay: Stimulation of fibroblast aromatase by pre-incubating cultured skin fibroblasts with hormones (tritiated water release assay); type: cell-based, human; conditions: for fold induction at 0.01 µM: Homo sapiens, Skin fibroblast
Experimental: (§1) In a preliminary study to investigate the above hypothesis we have measured aromatase activity in cultured human hair follicle dermal papilla cell lines and non-follicular skin fibroblasts from body sites with different responses to androgens. Aromatase was measured using the tritiated water released assay (13). The results are summarised as follows:
Fibroblast aromatase was stimulated by pre-incubating cells with testosterone at physiological concentrations (10 nmol). 19 cell lines were studied. Mean fold increase in aromatase activity (+/- SEM) was 2.69+/-0.38 (p<0.02 paired test). In separate experiments on three cell lines the response to a range of concentrations of testosterone and DHT was studied. Testosterone gave a twofold increase in aromatase maximal at 10 nmol. At the same concentration in response to DHT was over twice as great (4.3 fold).
Fibroblast aromatase was stimulated by pre-incubating the cells with testosterone at a physiological concentration (10 nmol). 19 cell lines were studied. Mean fold increase in aromatase activity (+/- SEM) was 2.69+/-0.38 (p<0.02 paired t test). In separate experiments on three cell lines the response to a range of concentrations of testosterone and DHT was studied. Testosterone gave a 2 fold increase in aromatase maximal at 10 nmol. At the same concentration the response to DHT was over twice as great (4.3 fold).

[4] = test system: aromatase activity in hair follicle dermal papilla cells; assay: Induction of aromatase in cultured hair follicle dermal papilla cells (tritiated water release assay); type: cell-based, human
Experimental: as §1
No aromatase was detected in hair follicle dermal papilla cells cultured through any of the above sites (fourteen cell lines).
No aromatase was detected in hair follicle dermal papilla cells cultured from any of the above sites (14 cell lines).

balding = conditions: topical application, humans; cited from earlier work
female hair loss = conditions: several small trials, taken orally; cited from earlier work
[5] = substrate: C[C@]12CCC(=O)C=C1CC[C@@H]1[C@@H]2CC[C@]2(C)C(=O)CC[C@@H]12; assay: cells, lysate or membranes; conditions: other: skin fibroblast lines from beard, occipital scalp and frontal scalp; no difference between the three sites
Experimental: as §2, §3

[6] = read-out: Fold increase in aromatase

C[C@]12CCC(=O)C(O)=C1CC[C@@H]1[C@@H]2CC[C@]2(C)C(=O)CC[C@@H]12 [4-OH androstenedione]
IC50 (aromatase [1]): ~25 nM
Type of inhibition of fibroblast aromatase (kinetic studies) (aromatase [1]; three cell lines): irreversible competitive inhibition
Effect on aromatase activity in scalp tissue (aromatase [2]): reduced activity to background levels

C[C@]12CCC(=O)C[C@@H]1CC[C@@H]1[C@@H]2CC[C@]2(C)[C@@H](O)CC[C@@H]12 [DHT, dihydrotestosterone]
fold induction at 0.01 µM [3, 6]: 4.3

C[C@@H]1C[C@H]2[C@@H]3CCC4=CC(=O)C=C[C@]4(C)[C@@]3(F)[C@@H](O)C[C@]2(C)[C@@]1(O)C(=O)CO [Dexamethasone]
Stimulation of aromatase in fibroblasts ([3]; skin fibroblasts): 10-20 fold
Induction of aromatase in dermal papilla cells [4]: induced aromatase

Nc1cc(N2CCCCC2)nc(N)[n+]1[O-] [Minoxidil]
Subjects with modest recovery in early balding (balding): about 30 % of subjects

C[C@]12CC[C@H]3[C@@H](CCC4=CC(=O)CC[C@@]43C)[C@@H]1CC[C@@H]2O [testosterone]
fold induction at 0.01 µM [3, 6]: 2
fold induction at 0.01 µM ([3]; read-out: Mean fold increase in aromatase activity (+/- SEM)): 2.69 ± 0.38
Mean fold increase in aromatase activity (+/- SEM) ([3]; pre-incubation with 10 nmol, 19 fibroblast cell lines, p<0.02): 2.69+/-0.38 fold
Fold increase in aromatase ([3]; separate experiments on three cell lines, range of concentrations, at 10 nmol (maximal for testosterone)): twofold
Induction of aromatase in dermal papilla cells [4]: failed to induce aromatase

CC(=O)O[C@]1(C(C)=O)CC[C@H]2[C@@H]3C=C(Cl)C4=CC(=O)[C@@H]5C[C@@H]5[C@]4(C)[C@H]3CC[C@@]21C [cyproterone acetate]
Effect on the aromatase response to testosterone and DHT ([3]; skin fibroblasts, androgen receptor blockade): inhibited
Effect in female hair loss (female hair loss): small positive affect

B1: aromatase (Homo sapiens) (protein)
chain: MVLEMLNPIHYNITSIVPEAMPAATMPVLLLTGLFLLVWNYEGTSSIPGPGYCMGIGPLISHGRFLWMGIGSACNYYNRVYGEFMRVWISGEETLIISKSSSMFHIMKHNHYSSRFGSKLGLQCIGMHEKGIIFNNNPELWKTTRPFFMKALSGPGLVRMVTVCAESLKTHLDRLEEVTNESGYVDVLTLLRRVMLDTSNTLFLRIPLDESAIVVKIQGYFDAWQALLIKPDIFFKISWLYKKYEKSVKDLKDAIEVLIAEKRRRISTEEKLEECMDFATELILAEKRGDLTRENVNQCILEMLIAAPDTMSVSLFFMLFLIAKHPNVEEAIIKEIQTVIGERDIKIDDIQKLKVMENFIYESMRYQPVVDLVMRKALEDDVIDGYPVKKGTNIILNIGRMHRLEFFPKPNEFTLENFAKNVPYRYFQPFGFGPRGCAGKYIAMVMMKAILVTLLRRFHVKTLQGQCVESIQKIHDLSLHPDETKNMLEMIFTPRNSDRCLEH
Km [5]: 25 nmol
